We go through 2 compounds from PMC8879496 (Pharmaceutics, 2022).

Like-named read-outs stand apart in the source and are kept apart here.

The nature of one series: Plasma stability, human. The series is classed as in vitro ADME. Particulars: 37 °C, read-out: Plasma Stability (% Remaining), Hum. The protocol: (§1) Animal plasma (Innovative Research, Inc., Novi, MI, USA) and test compounds (5 μM) were incubated at 37 °C for 4 h. To prevent the reaction, cold acetonitrile was added.
In another series the test system is SARS-CoV-2. The experiment in a line: microbe, parasite or virus in culture. The format is cell-based. Particulars: Severe acute respiratory syndrome coronavirus 2, Vero, 24 h; read-out: IC50, SARS-CoV-2 inhibition.
In a further series the target is T1, CYP1A2 (Homo sapiens, UniProt P05177).
T1 sequence (P05177 1-516): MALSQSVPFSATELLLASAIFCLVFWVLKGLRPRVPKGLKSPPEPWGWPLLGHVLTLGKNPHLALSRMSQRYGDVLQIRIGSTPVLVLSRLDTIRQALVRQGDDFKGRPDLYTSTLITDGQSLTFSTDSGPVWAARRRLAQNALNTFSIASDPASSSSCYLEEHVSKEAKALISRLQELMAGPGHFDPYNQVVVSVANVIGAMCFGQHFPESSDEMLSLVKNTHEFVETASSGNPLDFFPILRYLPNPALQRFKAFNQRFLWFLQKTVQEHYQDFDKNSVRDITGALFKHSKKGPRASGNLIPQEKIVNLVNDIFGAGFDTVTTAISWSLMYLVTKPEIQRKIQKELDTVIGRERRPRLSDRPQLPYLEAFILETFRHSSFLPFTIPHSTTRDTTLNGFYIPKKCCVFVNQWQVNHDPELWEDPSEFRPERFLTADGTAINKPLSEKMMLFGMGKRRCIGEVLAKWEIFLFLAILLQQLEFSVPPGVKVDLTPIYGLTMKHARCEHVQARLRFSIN
The experiment in a line: CYP450 enzyme inhibition, CYP1A2.

In another series the target is CYP2C9 (Homo sapiens, UniProt P11712). The series can be described thus: CYP450 enzyme inhibition, CYP2C9.
CYP2C9, sequence (P11712 whole entry): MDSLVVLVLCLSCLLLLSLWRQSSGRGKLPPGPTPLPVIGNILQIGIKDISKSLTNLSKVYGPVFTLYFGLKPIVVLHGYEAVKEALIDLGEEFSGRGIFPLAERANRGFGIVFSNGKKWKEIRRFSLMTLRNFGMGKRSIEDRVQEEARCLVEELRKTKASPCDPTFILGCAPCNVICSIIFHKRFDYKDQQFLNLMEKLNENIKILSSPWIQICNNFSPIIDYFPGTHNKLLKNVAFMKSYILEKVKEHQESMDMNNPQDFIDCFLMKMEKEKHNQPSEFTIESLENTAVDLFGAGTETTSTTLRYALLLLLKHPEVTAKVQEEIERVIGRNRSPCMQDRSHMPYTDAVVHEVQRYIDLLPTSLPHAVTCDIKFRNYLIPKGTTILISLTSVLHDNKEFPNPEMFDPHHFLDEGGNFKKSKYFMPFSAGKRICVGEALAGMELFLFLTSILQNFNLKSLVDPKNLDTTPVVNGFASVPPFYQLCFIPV
A short description of series [1]: Liver microsomal metabolic stability, rat. The series is classed as in vitro ADME. The conditions noted are these: rat liver microsomes 0.5 mg protein/mL, 1 μM, 37 °C. The protocol: (§2) Liver microsome samples (0.5 mg protein/mL) from mouse, rat, and human (Corning, Glendale, AZ, USA) in PBS and the test compound (final concentration 1 μM) were mixed. Following the addition of the NADPH regenerating solution (Corning), the samples were incubated at 37 °C for 30 min. The reaction was stopped by the addition of ice-cold acetonitrile, and the samples were centrifuged at 4000 rpm for 15 min.
Background: Liver microsomes are vesicles of endoplasmic reticulum, rich in cytochrome P450 enzymes.

The subject of a further series is MERS-CoV. The series can be described thus: microbe, parasite or virus in culture. The series is classed as cell-based. Particulars: Middle East respiratory syndrome-related coronavirus, Vero, 24 h, read-out: IC50, MERS-CoV inhibition, Vero cells, 0.0625 MOI, 24 h post-infection, spike staining.
A short description of series [2]: Liver microsomal metabolic stability, mouse. The series is classed as in vitro ADME. The conditions noted are these: mouse liver microsomes 0.5 mg protein/mL, 1 μM, 37 °C. The protocol:
as §2

In the next series the target is CYP2C19 (Homo sapiens, UniProt P33261). The experiment in a line: CYP450 enzyme inhibition, CYP2C19.
CYP2C19, sequence (P33261 whole entry): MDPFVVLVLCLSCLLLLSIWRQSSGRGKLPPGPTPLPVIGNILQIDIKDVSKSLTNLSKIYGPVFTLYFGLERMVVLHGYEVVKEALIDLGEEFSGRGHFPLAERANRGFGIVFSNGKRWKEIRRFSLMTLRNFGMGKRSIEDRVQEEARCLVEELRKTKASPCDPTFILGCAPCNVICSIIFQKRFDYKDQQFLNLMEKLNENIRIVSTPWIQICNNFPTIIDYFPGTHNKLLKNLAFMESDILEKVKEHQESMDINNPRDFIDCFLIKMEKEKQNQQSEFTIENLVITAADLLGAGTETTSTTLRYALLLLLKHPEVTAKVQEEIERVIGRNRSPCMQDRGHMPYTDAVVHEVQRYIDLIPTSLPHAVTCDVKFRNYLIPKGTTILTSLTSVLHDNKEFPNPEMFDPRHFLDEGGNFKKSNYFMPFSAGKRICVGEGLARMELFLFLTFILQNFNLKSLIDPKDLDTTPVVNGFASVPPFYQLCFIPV
Another series concerns the target SARS-CoV-2 Mpro (Severe acute respiratory syndrome coronavirus 2, UniProt P0DTD1). The series can be described thus: SARS-CoV-2 Mpro activity assay (assay kit, fluorescence). The format is biochemical. The protocol:
SARS-CoV-2 Mpro activity was measured using the SARS-CoV-2 Mpro assay kit (BPS Bioscience, San Diego, CA, USA) according to the manufacturer’s instructions. The samples were evaluated in duplicated, serially diluted concentrations. The fluorescence intensity of low binding, black, 96-well microtiter plates was detected at an excitation wavelength of 360 nm and an emission wavelength of 460 nm using a microplate spectrophotometer (Bio-Tek, Winooski, VT, USA).

For series [3], the system named is NA of H5N1 influenza virus. Particulars: cited from earlier work.
A further series concerns influenza virus. The conditions noted are these: read-out: IC50, anti-influenza virus activity; cited from earlier work.
For a further series, the system named is C57BL/6 mice. The experiment in a line: Five-day repeated-dose toxicity study. Particulars: male and female mice; for clinical signs and animal death: IP 10 mg/kg, observed for 6 days; for approximately lethal dose: IP 10 mg/kg/day for 5 days.
Another series deals with SARS-CoV. The series can be described thus: microbe, parasite or virus in culture. The format is cell-based. The conditions noted are these: Severe acute respiratory syndrome coronavirus, Vero, 24 h, read-out: IC50, SARS-CoV inhibition.
Series [4] can be described thus: Liver microsomal metabolic stability, human. The series is classed as in vitro ADME. The conditions noted are these: human liver microsomes 0.5 mg protein/mL, 1 μM, 37 °C. The protocol:
as §2

A short description of series [5]: Pharmacokinetic study in mice. The format is in vivo. Particulars: for Cmax / Tmax: n = 3. The protocol:
Seven-week-old male ICR mice were purchased from Nara Bio Co., Ltd. (Pyungtaek, Korea) and housed under 24 °C, 50% humidity, and 12 h day/night cycle conditions with access to standard chow and drinking water. Mice were acclimated for 1 week before the experiments. All animal procedures were approved by the KRICT Animal Care and Use Committee (ACUC approval number, DDP-7221). A total of 10 mg/kg of compound in a 5:40:55 ratio of DMSO:PEG400:DW was intraperitoneally or orally administered (n = 3). Blood samples were collected at 0.083–24 h after drug administration through the retro-orbital venous plexus and the plasma fraction was separated by centrifugation (15,000 rpm, 3 min). […] Mean plasma concentration–time data were calculated using noncompartmental methods (Phoenix WinNonlin software version 6.4; Pharsight Corporation, Mountain View, CA, USA).

For the next series, the target named is hERG K+ channel (Homo sapiens, UniProt Q12809). The experiment in a line: hERG K+ channel automated planar patch clamp assay. On the technique in general: Block of hERG is tested as a sign of cardiac risk.
hERG K+ channel, sequence (Q12809 whole entry): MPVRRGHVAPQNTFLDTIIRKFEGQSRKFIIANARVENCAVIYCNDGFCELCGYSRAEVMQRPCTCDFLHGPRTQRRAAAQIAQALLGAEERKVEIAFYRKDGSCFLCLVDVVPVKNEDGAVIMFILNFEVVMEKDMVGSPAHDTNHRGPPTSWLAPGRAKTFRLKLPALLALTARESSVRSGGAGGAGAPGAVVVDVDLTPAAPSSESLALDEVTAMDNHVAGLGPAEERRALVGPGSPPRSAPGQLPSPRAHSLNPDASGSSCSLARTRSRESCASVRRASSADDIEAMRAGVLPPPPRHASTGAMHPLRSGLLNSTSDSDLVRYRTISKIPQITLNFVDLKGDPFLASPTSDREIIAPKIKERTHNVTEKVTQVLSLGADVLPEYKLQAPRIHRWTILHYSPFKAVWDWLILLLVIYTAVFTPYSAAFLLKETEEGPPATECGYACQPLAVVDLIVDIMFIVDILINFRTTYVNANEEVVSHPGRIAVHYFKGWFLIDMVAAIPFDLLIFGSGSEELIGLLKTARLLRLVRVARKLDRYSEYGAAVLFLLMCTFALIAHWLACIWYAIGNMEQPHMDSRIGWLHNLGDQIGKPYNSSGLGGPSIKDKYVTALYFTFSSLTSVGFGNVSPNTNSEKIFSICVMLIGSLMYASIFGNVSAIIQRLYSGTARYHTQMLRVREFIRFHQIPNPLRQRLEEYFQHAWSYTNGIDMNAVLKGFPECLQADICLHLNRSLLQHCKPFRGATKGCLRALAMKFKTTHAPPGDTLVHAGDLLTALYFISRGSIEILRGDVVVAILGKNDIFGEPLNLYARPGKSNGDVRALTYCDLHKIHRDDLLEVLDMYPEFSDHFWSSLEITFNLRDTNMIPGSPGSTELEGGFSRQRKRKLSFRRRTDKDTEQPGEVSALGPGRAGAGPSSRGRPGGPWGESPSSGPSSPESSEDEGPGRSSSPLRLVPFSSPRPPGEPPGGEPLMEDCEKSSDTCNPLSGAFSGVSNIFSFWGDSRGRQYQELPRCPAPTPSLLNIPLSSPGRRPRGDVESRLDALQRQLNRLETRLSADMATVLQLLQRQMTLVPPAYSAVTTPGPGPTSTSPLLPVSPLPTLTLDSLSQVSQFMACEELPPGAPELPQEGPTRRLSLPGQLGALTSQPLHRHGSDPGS
A short description of another series: in vitro. Particulars: African green monkey.
A further series addresses CYP3A4 (Homo sapiens, UniProt P08684). The experiment in a line: CYP450 enzyme inhibition, CYP3A4.
For another series, the target named is CYP2D6 (Homo sapiens, UniProt P10635). The experiment in a line: CYP450 enzyme inhibition, CYP2D6.
CYP2D6, sequence (P10635 whole entry): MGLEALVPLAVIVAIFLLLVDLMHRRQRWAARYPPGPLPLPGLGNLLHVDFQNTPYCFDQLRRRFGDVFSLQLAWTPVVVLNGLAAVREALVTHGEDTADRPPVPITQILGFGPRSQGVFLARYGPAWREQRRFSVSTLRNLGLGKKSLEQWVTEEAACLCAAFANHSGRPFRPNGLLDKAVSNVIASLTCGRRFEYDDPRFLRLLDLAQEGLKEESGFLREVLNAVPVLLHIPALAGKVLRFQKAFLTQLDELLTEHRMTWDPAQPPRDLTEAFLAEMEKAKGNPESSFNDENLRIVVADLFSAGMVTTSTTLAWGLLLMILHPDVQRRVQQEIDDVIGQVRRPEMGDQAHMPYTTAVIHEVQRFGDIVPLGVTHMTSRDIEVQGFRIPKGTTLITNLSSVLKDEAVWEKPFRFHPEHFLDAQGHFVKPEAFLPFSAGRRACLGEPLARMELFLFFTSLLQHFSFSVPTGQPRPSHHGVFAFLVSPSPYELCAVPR
Another series in a line: Plasma stability, rat. The format is in vitro ADME. Particulars: 37 °C. The protocol: as §1
[6] abbreviates: male, ICR, mouse, plasma, IP 10 mg/kg.
[7] abbreviates: male, ICR, mouse, plasma, PO 10 mg/kg.

What is called amount remaining is what is left of the initial amount, in per cent. The term IC50 denotes the midpoint of a concentration-inhibition curve. Broadly, the AUC is the area under the concentration-time curve, a measure of exposure. As a reminder, the Cmax is the highest concentration seen after dosing. The Tmax is the time at which the peak concentration occurs. What is called inhibition is the change of the read-out against control, counted positive when it falls.

CYP3A4, sequence (P08684 whole entry): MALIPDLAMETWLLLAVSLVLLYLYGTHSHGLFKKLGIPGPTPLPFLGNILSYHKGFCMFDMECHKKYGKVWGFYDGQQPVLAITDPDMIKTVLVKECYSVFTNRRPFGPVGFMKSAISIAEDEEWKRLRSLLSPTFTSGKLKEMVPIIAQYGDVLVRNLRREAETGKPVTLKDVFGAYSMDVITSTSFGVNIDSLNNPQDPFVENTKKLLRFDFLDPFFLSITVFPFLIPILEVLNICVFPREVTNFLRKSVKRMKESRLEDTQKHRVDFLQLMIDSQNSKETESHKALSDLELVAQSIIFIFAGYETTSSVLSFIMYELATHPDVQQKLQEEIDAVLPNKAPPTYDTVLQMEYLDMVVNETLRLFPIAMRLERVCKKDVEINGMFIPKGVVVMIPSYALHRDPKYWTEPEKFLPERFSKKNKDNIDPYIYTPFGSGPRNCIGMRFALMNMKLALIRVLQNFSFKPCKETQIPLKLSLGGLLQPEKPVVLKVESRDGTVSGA

For `CCCC(=O)c1c(O)c(CC2=C(O)C(C)(C)C(O)=C(C(C)=O)C2=O)c(O)c(Cc2c(O)c(CC3=C(O)C(C)(C)C(O)=C(C(C)=O)C3=O)c(O)c(C(=O)CCC)c2O)c1O` [dryocrassin ABBA, Dryocrassin ABBA], the amount remaining at 4 h, 5 μM in “Plasma stability, human” worked out at 29.7 ± 8.37%; in the series “Plasma stability, rat” it was 67 ± 7.29%. In addition, the IC50 in the series on SARS-CoV-2 came to 22.4 ± 0.73 µM; against CYP1A2, 14.7 µM; on CYP2C9, 0.4 µM; in the series on MERS-CoV, 1.31 ± 0.07 µM; on CYP2C19, 16.1 µM; against SARS-CoV-2 Mpro it was 46.5 ± 1.1 µM. The IC50 in [3] was 18.6 ± 4.53 µM; in the series with influenza virus, 16.5 µM; in the series on SARS-CoV it was 0.8 ± 0.07 µM; at CYP3A4 it was 8.33 µM; at CYP2D6 it was 13.5 µM. Moreover, the “MS (%) (Remaining after 30 min), Rat” value in series [1] is above 99%. Moreover, the “MS (%) (Remaining after 30 min), Mice” value in series [2] was found to be 68.3 ± 2.1%. Also, the “clinical signs and animal death” value in the series on C57BL/6 mice was “No abnormal clinical signs and animal death”. Moreover, the approximately lethal dose in the series with C57BL/6 mice is given as above 10 mg/kg. Besides, the “MS (%) (Remaining after 30 min), Hum” value in [4] is above 99%. The AUC is 65960 ± 8630 ng·h/mL in [5] (IP 10 mg/kg, n = 3, 10 mg/kg); 65000 ng·h/mL in [5] (male, ICR, mouse, plasma, ip, 10 mg/kg, IP 10 mg/kg, n = 3, read-out: AUC); 19300 to 65000 ng·h/mL in series [5] (male, ICR, mouse, plasma, other: intraperitoneal and oral (range over both arms), 10 mg/kg, in vivo, span over IP and PO 10 mg/kg (abstract), read-out: plasma exposure (AUC)); 19300 ± 1420 ng·h/mL in [5] (male, ICR, mouse, plasma, po, 10 mg/kg, PO 10 mg/kg, n = 3, read-out: AUC). The Cmax in [5] (setting [6]) turned out to be 12800 ± 1790 ng/mL; in [5] (setting [7]), 3640 ± 570 ng/mL. In addition, the figures for the Tmax in series [5] (setting [6]) and in series [5] (setting [7]) were 1.17 ± 0.76 h and 0.67 ± 0.29 h, respectively. Besides, the half-life was 5.5 ± 0.56 h in [5] (male, ICR, mouse, plasma, IP 10 mg/kg, n = 3, read-out: T1/2 (converted)); 12.6 ± 3.76 h in series [5] (male, ICR, mouse, plasma, PO 10 mg/kg, n = 3, read-out: T1/2 (converted)); 5.5 to 12.6 h in series [5] (male, ICR, mouse, plasma, other: intraperitoneal and oral (range over both arms), in vivo, span over IP and PO 10 mg/kg (abstract), read-out: half-life). The compound further showed an inhibition at 10 µM against hERG K+ channel of 7.27%. The compound further displayed a CC50 in “in vitro” above 50 µM.
As to `CCCC(=O)c1c(O)c(CC2=C(O)C(C)(C)C(O)=C(C(C)=O)C2=O)c(O)c(CC2=C(O)C(C)(C)C(O)=C(C(C)=O)C2=O)c1O` [filixic acid ABA], the IC50 in the series on SARS-CoV-2 is 25.9 ± 0.81 µM; with MERS-CoV it was 2.68 ± 0.1 µM; at SARS-CoV-2 Mpro (serially diluted compounds 3.125–100 μM, mean ± SEM, read-out: IC50, SARS-CoV-2 Mpro (3CL) activity), 39.6 ± 1.09 µM; in series [3], 29.6 ± 2.48 µM; in the series with SARS-CoV, 4.56 ± 0.21 µM. Further, the “clinical signs and animal death” value in the series with C57BL/6 mice is “No abnormal clinical signs and animal death”. This compound also showed an approximately lethal dose with C57BL/6 mice above 10 mg/kg. Also, in the series “in vitro”, the CC50 is above 50 µM.
